What was measured:
[1] = test system: MA-L (DNA, aptamer) CAGAACTTACGACTCAGGCATTTTGCCGGGTAACGAAGTTACTGTCGTAAG; experiment: ITC; settings: Na+ 20 mM, Mg2+ 0.5 mM
[2] = test system: MA (DNA, aptamer) CTTACGACTCAGGCATTTTGCCGGGTAACGAAGTTACTGTCGTAAG; experiment: ITC; settings: Na+ 20 mM, Mg2+ 0.5 mM

KD [1]: 6.2 µM | KD [2]: 6.1 ± 0.2 µM
SMILES: CCCC(C(=O)c1ccc2c(c1)OCO2)N1CCCC1 (centres unmarked)

From publication PMC5934630 (2018)
